In patent US10477864B2, “Microbiocidal quinoline (thio)carboxamide derivatives” (priority 2016, dated 2019):

Legend:
[1] = tested on: Botryotinia fuckeliana (Botrytis cinerea); experiment: Botryotinia fuckeliana (Botrytis cinerea) / liquid culture (gray mould); type: cell-based; settings: 72 h, read-out: control of Botryotinia fuckeliana
[2] = tested on: Fusarium culmorum; experiment: microbe, parasite or virus in culture; type: cell-based; settings: read-out: control of Fusarium culmorum
[3] = tested on: Sclerotinia sclerotiorum; experiment: Sclerotinia sclerotiorum / liquid culture (cottony rot); settings: 72 h, read-out: control of Sclerotinia sclerotiorum
Procedure: Sclerotinia sclerotiorum/Liquid Culture (Cottony Rot)
Mycelia fragments of a newly grown liquid culture of the fungus are directly mixed into nutrient broth (Vogels broth). After placing a (DMSO) solution of test compound into a microtiter plate (96-well format) the nutrient broth containing the fungal material is added. The test plates are incubated at 24° C. and the inhibition of growth is determined photometrically 3-4 days after application.

[4] = tested on: Magnaporthe grisea (Pyricularia oryzae); experiment: microbe, parasite or virus in culture; type: cell-based; settings: 72 h, read-out: control of Magnaporthe grisea
[5] = tested on: Monographella nivalis (Microdochium nivale); experiment: Monographella nivalis (Microdochium nivale) / liquid culture (foot rot cereals); type: cell-based; settings: 96 h, read-out: control of Monographella nivalis
[6] = tested on: Gaeumannomyces graminis; experiment: Gaeumannomyces graminis / liquid culture (take-all of cereals); type: cell-based; settings: read-out: control of Gaeumannomyces graminis
[7] = tested on: Glomerella lagenarium (Colletotrichum lagenarium); experiment: Glomerella lagenarium (Colletotrichum lagenarium) / liquid culture (anthracnose); type: cell-based; settings: Colletotrichum orbiculare; read-out: control of Glomerella lagenarium
[8] = tested on: Fusarium culmorum; experiment: whole plant or invertebrate; type: in vivo; settings: in Triticum aestivum, read-out: control of Fusarium culmorum

| Structure (SMILES) | inhibition of growth at 200 ppm [1] [%] | inhibition of growth at 200 ppm [2] [%] | melting point [°C] | inhibition of growth at 20 ppm [3] [%] | inhibition of growth at 200 ppm [4] [%] | inhibition of growth at 200 ppm [5] [%] | inhibition of growth at 200 ppm [6] [%] | inhibition of growth at 200 ppm [7] [%] | pest or weed control at 200 ppm [8] [%] |
| --- | --- | --- | --- | --- | --- | --- | --- | --- | --- |
| CC(C)CC(C)(Cc1ccccc1)NC(=O)c1cnc2c(Cl)cccc2c1 (stereo not shown) [Compound E-14, N-(1-benzyl-1,3-dimethyl-butyl)-8-chloro-quinoline-3-carboxamide] | ≥ 80 | ≥ 80 | 147 to 148 | ≥ 80 | ≥ 80 | ≥ 80 | ≥ 80 | ≥ 80 |  |
| Cc1cccc2cc(C(=O)NC(C)(Cc3ccccc3)CC(C)C)cnc12 (stereo not shown) [Compound E-20, N-(1-benzyl-1,3-dimethyl-butyl)-8-methyl-quinoline-3-carboxamide] | ≥ 80 | ≥ 80 | 132 to 133 | ≥ 80 | ≥ 80 | ≥ 80 | ≥ 80 | ≥ 80 | ≥ 80 |
| CC(C)CC(C)(Cc1ccc(F)cc1)NC(=O)c1cnc2c(F)cccc2c1 (stereo not shown) [Compound E-24, 8-fluoro-N-[1-[(4-fluorophenyl)methyl]-1,3-dimethyl-butyl]quinoline-3-carboxamide] | ≥ 80 | ≥ 80 | 38 to 39 | ≥ 80 | ≥ 80 | ≥ 80 | ≥ 80 | ≥ 80 | ≥ 80 |
| CC(C)CC(C)(Cc1ccc(Cl)cc1)NC(=O)c1cnc2c(F)cccc2c1 (stereo not shown) [Compound E-25] | ≥ 80 | ≥ 80 | 57 to 59 | ≥ 80 | ≥ 80 |  | ≥ 80 | ≥ 80 | ≥ 80 |
| CC(Cc1ccccc1)(CC(F)(F)F)NC(=O)c1cnc2c(F)cccc2c1 (stereo not shown) [Compound E-39, N-(1-benzyl-3,3,3-trifluoro-1-methyl-propyl)-8-fluoro-quinoline-3-carboxamide] | ≥ 80 | ≥ 80 | 158 to 160 | ≥ 80 | ≥ 80 |  | ≥ 80 | ≥ 80 | ≥ 80 |
| CC1(CC(C)(Cc2ccccc2)NC(=O)c2cnc3c(F)cccc3c2)CC1 (stereo not shown) [Compound E-47, N-[1-benzyl-1-methyl-2-(1-methylcyclopropyl)ethyl]-8-fluoro-quinoline-3-carboxamide] | ≥ 80 | ≥ 80 | 126 to 129 | ≥ 80 | ≥ 80 |  | ≥ 80 | ≥ 80 |  |
| CC(C)C[C@](C)(Cc1ccccc1)NC(=O)c1cnc2c(F)cccc2c1 [Compound F-1, N-[(1R)-1-benzyl-1,3-dimethyl-butyl]-8-fluoro-quinoline-3-carboxamide] | ≥ 80 | ≥ 80 |  | ≥ 80 | ≥ 80 | ≥ 80 | ≥ 80 | ≥ 80 | ≥ 80 |
| C=C(C)C[C@](C)(Cc1ccccc1)NC(=O)c1cnc2c(F)cccc2c1 [Compound F-10, N-[(1R)-1-benzyl-1,3-dimethyl-but-3-enyl]-8-fluoro-quinoline-3-carboxamide] | ≥ 80 | ≥ 80 |  | ≥ 80 |  | ≥ 80 | ≥ 80 | ≥ 80 | ≥ 80 |
